Results published in patent US20070248570A1, “Pharmaceutical Compositions Containing Platinum Complexes with Secondary Xanthates and Therapeutic Uses Thereof” (priority 2003, published 2007).

Key:
Calu-6 = assay: Cytotoxicity on human cancer cells in tissue culture, crystal violet staining; type: cell-based
Description: (§1) The anti-tumoral activity of compounds was determined in tissue culture media of pH of 6.8 and 7.4. Cells were incubated for 2 h with the test compounds, followed by 24-96 h incubation with regular, inhibitor free medium of pH 7.4. The substances were serially diluted in tissue culture medium of the desired pH. After incubation, surviving cells were stained with crystal violet and the optical density was measured in an ELISA reader.

SK-OV3 = assay: as above; type: cell-based
Description: as §1

LXF-289 = assay: as above; type: cell-based
Description: as §1

MCF-7 = assay: as above; type: cell-based
Description: as §1

SK-MEL-25 = assay: as above; type: cell-based
Description: as §1

KB = assay: as above; type: cell-based
Description: as §1

[1] = test system: human tumors xenotransplanted in nude mice; settings: cited from earlier work
tumor cells = settings: cited from earlier work
[2] = test system: six human tumor cell lines; assay: Cytotoxic activity in a panel of six human tumor lines (comparisons and pH quotient); type: cell-based; settings: mean ± SD over the human tumor cell lines tested
Description: FIG. 2: Mean quotient of IC50 at pH 7.4/IC50 at pH 6.8 Mean values ±SD of IC50 at pH 7.4/IC50 at pH 6.8 for all six human tumor cell lines tested. IC50at both pH conditions were obtained for four cell lines.
Calu-6 (adenocarcinoma, lung), SK-MEL-25 (melanoma), MCF-7 (mamma carcinoma), LXF-289 (adenocarcinoma, lung), SK-OV -3 (adenocarcinoma, ovary), KB (squameous cell carcinoma, head and neck) were obtained from ATCC and were cultivated according to the instructions of the supplier at 37° C., 5% CO2 atmosphere and 100% relative humidity.
as §1, with “reader. The concentration which was needed to reduce the cell number by 50% (IC50) was determined from dose-response curves for each compound.” for “reader.”

[3] = Calu-6, pH 6.8, 2 h incubation, mean of four assays
[4] = Calu-6, pH 7.4, 2 h incubation, mean of four assays
[5] = SK-0V-3, pH 6.8, 2 h incubation, mean of four assays
[6] = SK-0V-3, pH 7.4, 2 h incubation, mean of four assays
[7] = LXF-289, pH 6.8, 2 h incubation, mean of four assays
[8] = LXF-289, pH 7.4, 2 h incubation, mean of four assays
[9] = MCF-7, pH 6.8, 2 h incubation, mean of four assays
[10] = MCF-7, pH 7.4, 2 h incubation, mean of four assays
[11] = SK-MEL-25, pH 6.8, 2 h incubation, mean of four assays
[12] = SK-MEL-25, pH 7.4, 2 h incubation, mean of four assays
[13] = KB, pH 6.8, 2 h incubation, mean of four assays
[14] = KB, pH 7.4, 2 h incubation, mean of four assays

Compound | IC50 (Calu-6; [3]) | IC50 (Calu-6; [4]) | IC50 (SK-OV3; [5]) | IC50 (SK-OV3; [6]) | IC50 (LXF-289; [7]) | IC50 (LXF-289; [8]) | IC50 (MCF-7; [9]) | IC50 (MCF-7; [10]) | IC50 (SK-MEL-25; [11]) | IC50 (SK-MEL-25; [12]) | IC50 (KB; [13]) | IC50 (KB; [14]) | also measured
Bis(O-cyclobutyl-dithiocarbonato)platinum(II) [Compound 18] | 3 ± 0.4 µM | 7 ± 1.2 µM | 17 ± 2.9 µM | 19 ± 4.1 µM | 37 ± 1.4 µM | 44 ± 0.8 µM | 11 ± 0.8 µM | 21 ± 1 µM | 7 ± 1 µM | 12 ± 3.7 µM | 6 ± 0.6 µM | 20 ± 2.9 µM | –
CCOC(=S)[S][Pt][S]C(=S)OCC [r2, Bis(O-ethyl-dithiocarbonato)platinum(II)] | 21 ± 3.9 µM | 24 ± 0.9 µM | 86 ± 3.2 µM | 98 ± 16.5 µM | 45 ± 8 µM | 91 ± 24.9 µM | 12 ± 0.2 µM | 47 ± 5.3 µM | 21 ± 3 µM | 56 ± 6.2 µM | 18 ± 4 µM | 58 ± 5 µM | toxicity on kidneys, small intestines and white blood cell count ([1]; mouse, in vivo): significantly lower toxicity; anti-tumoral activity on human tumors xenotransplanted in nude mice ([1]; versus cisplatin): comparable to cisplatin; cytotoxicity in media of pH 6.8 as compared to pH 7.4 (tumor cells): significantly higher cytotoxicity
N.N.[Cl][Pt][Cl] [Cisplatin, cis-dichloro-diammine-platinum(II)] | 16 ± 1 µM | 25 ± 5.7 µM | 64 ± 0.7 µM | 90 ± 2.77 µM | 113 ± 22.3 µM | 83 ± 23 µM | 108 ± 27 µM | 160 ± 30 µM | 78 ± 3.3 µM | 90 ± 25 µM | 55 ± 2 µM | 52 ± 3.3 µM | –
Bis(O-propyl-dithiocarbonato)platinum(II) [r3] | 7 ± 1.1 µM | 21 ± 0.9 µM | 45 ± 27 µM | 50 ± 1 µM | 37 ± 9 µM | 49 ± 5 µM | 4 ± 1 µM | 9 ± 3 µM | 10 ± 1.5 µM | 21 ± 1.9 µM | 12 ± 1 µM | 38 ± 3 µM | –
CC(C)OC(=S)[S][Pt][S]C(=S)OC(C)C [Compound 15, Bis(O-isopropyl-dithiocarbonato)platinum(II)] | 6 ± 0.6 µM | 10 ± 0.6 µM | 14 ± 2.1 µM | 33 ± 8 µM | 10 ± 1.7 µM | 30 ± 0.4 µM | 3 ± 0.9 µM | 7 ± 3 µM | 6 ± 0.4 µM | 12 ± 1.5 µM | 6 ± 0.4 µM | 10 ± 0.9 µM | Mean quotient of IC50 at pH 7.4/IC50 at pH 6.8 [2]: 2.18±0.49
COC(=S)[S][Pt][S]C(=S)OC [r1, Bis(O-methyl-dithiocarbonato)platinum (II)] | – | – | – | – | – | – | – | – | – | – | – | – | IC50 (Calu-6; pH 6.8): 11 ± 2.9 µM; IC50 (Calu-6; pH 7.4): 21 ± 5.6 µM; IC50 (SK-OV3; pH 6.8): 26 ± 2.4 µM; IC50 (SK-OV3; pH 7.4): 47 ± 2.9 µM; IC50 (LXF-289; pH 6.8): 39 ± 9.5 µM; IC50 (LXF-289; pH 7.4): 102 ± 19.3 µM; IC50 (MCF-7; pH 6.8): 7 ± 1 µM; IC50 (MCF-7; pH 7.4): 19 ± 4.4 µM; IC50 (SK-MEL-25; pH 6.8): 14 ± 5 µM; IC50 (SK-MEL-25; pH 7.4): 80 ± 25.9 µM; IC50 (KB; pH 6.8): 20 ± 1 µM; IC50 (KB; pH 7.4): 49 ± 2 µM
